Source: publication PMC8765781, “A platform of assays for the discovery of anti-Zika small-molecules with activity in a 3D-bioprinted outer-blood-retina model” (PLoS ONE, 2022)
Like-named read-outs stand apart in the source and are kept apart here.

Tested on: wild-type ZIKV (Ugandan MR766 strain) in Vero cells
Assay: ZIKV cytopathic effect (CPE) inhibition qHTS assay, CellTiter-Glo readout
Type: cell-based, Zika virus
Conditions: for Emax: read-out: Max response
[1] = Zika virus, Vero, read-out: Log AC50 (M) (converted)
[2] = Zika virus, Vero, from Hill fit of the response curve, 50% of maximum activity response, 194 cherry-picked compounds, protocol name not given, read-out: AC50
[3] = Zika virus, Vero, potency in log units (Molar) from Hill fit of the response curve, 194 cherry-picked compounds, protocol name not given, read-out: Log AC50 (converted)
[4] = difference between neutral response and maximum compound response

Structure (SMILES)	Efficacy	AC50 (Zika virus, Vero) [M]	AC50 [1] [M]	CC-v2 (curve class classification of the dose response curve)	other results
CN(C)c1cccc(-c2c3c(=O)n(-c4ccccc4Cl)[nH]c3cc(=O)n2C)c1 [NCGC00378460-08]	-22.536	2.91e-05	2.91e-05	–	–
CC(C)C(=O)c1cn(CC(=O)COc2ccc(Oc3ccccc3)cc2)c2ccc(C(=O)O)cc12 [NCGC00378619-01]	-17.195	1.3e-05	1.3e-05	–	–
CCCOc1ccc([S+](=O)([O-])N2CCN(CCO)CC2)cc1-c1nc2c(CCC)cn(CC)c2c(=O)[nH]1 [NCGC00378703-02]	-30.503	5.8e-05	5.8e-05	–	–
CCNC(=O)Nc1ccc(-c2nc3c(c(N4CCOC[C@@H]4C)n2)CCN(c2ncccn2)C3)cc1 [NCGC00378864-01]	-63.761	2.06e-05	2.06e-05	–	–
O=C(O)C[C@H]1CC[C@H](c2ccc(-c3ccc(Nc4ccc(C(F)(F)F)nc4)cn3)cc2)CC1 [NCGC00378933-01]	-46.182	5.8e-05	5.8e-05	-3	–
Cc1cc(=O)oc2c(C=O)c(O)ccc12 [NCGC00379137-01]	-45.072	5.8e-05	5.8e-05	-2.2	–
Nc1cccc(CNC(=O)c2ccc(Oc3ccc(OCc4cccc(F)c4)cc3)nc2)c1 [NCGC00379156-01]	-30.412	7.31e-05	7.31e-05	–	–
C=C1C(=O)CC2OC2(C)CC2OC(=O)C(=C)C2C(O)C1OC(=O)/C(C)=C\C (centres unmarked) [NCGC00380095-01]	-52.521	4.53e-05	4.53e-05	-3	–
CC(=O)OCC1OC(O[C@H]2CC[C@@]3(C)C(CC[C@]4(C)C3CC=C3[C@@H]5CC(C)(C)CC[C@]5(C(=O)O)CC[C@]34C)[C@]2(C)CO)C(O)C(O)C1OC1OC(C)C(O)C(OC2OCC(O)C(O)C2O)C1O (some centres unmarked) [NCGC00380575-01]	-26.099	7.78e-06	7.78e-06	–	–
C/C=C(\C)C(=O)O[C@H]1C=CC(=O)O[C@H]1/C=C/[C@@H](O)[C@H](C)O [NCGC00380589-01]	-37.007	6.51e-05	6.51e-05	–	–
CC1(C)C=CN2C(=O)C3=CCCN3C(=O)[C@@H]2C[C@@]12Nc1ccccc1C2=O [NCGC00380729-01]	-25.178	4.53e-05	4.53e-05	–	–
CC(=O)OC[C@]12C[C@H](O)C(C)=C[C@H]1O[C@@H]1[C@H](O)[C@@H](O)[C@@]2(C)[C@]12CO2 [NCGC00380760-01]	-57.268	–	–	-1.2	Log AC50 (M): -4.894 M; Max Resp: -47.163; AC50 (read-out: AC50): 1.28e-05 M
CC1CCC2C(=CCC(O)C2(C)C)C1(C)Cc1c(O)cc(CO)c(C=O)c1O (centres unmarked) [NCGC00380764-01]	-71.029	4.04e-05	4.04e-05	-2.2	–
CO[C@H]1/C=C/C=C/C=C/C[C@H](OC(=O)[C@@H](C)NC(=O)C2CCCCC2)[C@H](C)[C@@H](O)/C(C)=C\CCc2cc(O)cc(c2)NC(=O)C1 [NCGC00380800-01]	-73.026	5.44e-06	5.44e-06	-1.2	–
C/C(=C\CCC(C)CCO)C(=O)OC1(C)CCC2C(C(=O)O)=COC(OC3OC(CO)C(O)C(O)C3O)C21 (centres unmarked) [NCGC00380886-01]	-68.93	1.12e-05	–	–	Curve class: -3; AC50 (Zika virus, Vero, read-out: Log AC50 (converted)): 1.12e-05 M; Emax (Zika virus, Vero): -7.99%
C=C(CO)C(=O)O[C@H]1C/C(C)=C/CC/C(CO)=C/[C@H]2OC(=O)C(=C)[C@H]12 [NCGC00380889-01]	-76.574	1.43e-05	1.43e-05	-3	–
COc1c2c(c(C)c3c1C(=O)OC3)OC1(C)CC(O)C34OC(OC)(CCC3(C)C1C2)OC4(C)CO (centres unmarked) [NCGC00380890-01]	-69.031	1.42e-05	1.42e-05	-3	–
COc1cc2c(cc1O)C(c1ccc(O)cc1)C(C)C(C)C2 (centres unmarked) [NCGC00380925-01]	-32.851	6.51e-05	6.51e-05	-3	–
C=C(C)C(=O)OC1CC2(C)OC(=CC2=O)C(=C)CC2OC(=O)C(=C)C12 (centres unmarked) [NCGC00381113-01]	–	–	–	–	AC50 [2]: 2.02e-05 M; AC50 [3]: 2.02e-05 M; Efficacy [4]: -29.164
C=C(C)C1CCC(C)C12CC(O)C1(C)OC1C2OC(=O)C(N)CCC(=O)O (centres unmarked) [NCGC00381118-01]	-55.082	2.02e-05	2.02e-05	-3	–
CC(=O)CC1CCC(C(C)C(=O)OCC(O)CO)O1 (centres unmarked) [NCGC00381119-01]	-53.159	2.91e-05	2.91e-05	-3	–
CC1=CC2(O)/C=C/C(C)(O)C(O)C(O)/C=C/C(=O)OC23C(=O)NC(CC(C)C)C3C1C (centres unmarked) [NCGC00381121-01]	-74.853	1.59e-05	1.59e-05	-3	–
C[C@@H]1CCC2C(C)(C)[C@H](O)CC[C@]2(C)[C@@]12Cc1c(O)cc3c(c1O2)CN(CCO)C3=O (some centres unmarked) [NCGC00381123-01]	-75.159	8.93e-06	8.93e-06	-3	–
C/C=C(\C)C(=O)OC1CC2C(CC=C3CC(OC4CC(OC)C(OC5CC(OC)C(OC6CC(OC)C(OC7CC(OC)C(OC8CC(OC)C(OC9OC(CO)C(O)C(O)C9O)C(C)O8)C(C)O7)C(C)O6)C(C)O5)C(C)O4)CCC32C)C2(O)CCC(C(C)=O)C12C (centres unmarked) [NCGC00381127-01]	–	–	–	–	AC50 (Zika virus, Vero, primary qHTS curve fit, 194 cherry-picked compounds, log10 of molar AC50, read-out: Log AC50 (converted)): 4.36e-06 M; AC50 (Zika virus, Vero, primary qHTS curve fit, values match uM against the Log AC50 column, read-out: AC50): 4.36e-06 M; Emax (Zika virus, Vero, response at highest concentration): 4.53%; Curve class (qHTS curve class, negative sign = inhibitory curve): -3
CC(C)(O)C(O)C(=O)OCc1ccc(O[C@@H]2O[C@H](CO)[C@@H](O)[C@H](O)[C@H]2O)cc1 (some centres unmarked) [NCGC00381128-01]	-65.299	1e-05	1e-05	-3	–
CC1=CC2/C=C(\C)CCC(O)C3OC(C)(C)OC3CC(=O)OC23C(=O)NC(CC(C)C)C3C1C (centres unmarked) [NCGC00381131-01]	-69.811	1.42e-05	1.42e-05	-3	–
C=C1C(=O)O[C@@H]2C(OC(=O)/C(C)=C\C)/C(C)=C\C(=O)/C=C(\C)C[C@H](O)[C@@H]12 (some centres unmarked) [NCGC00381208-01]	-35.291	5.08e-05	5.08e-05	-3	–
CCC(C)C(=O)OC1CC(O)C23C4OCC5(C(O)CC2C1(C)C(O)O4)C3C(=O)CC1(C)C(c2ccoc2)CC2OC215 (centres unmarked) [NCGC00381227-01]	–	–	–	–	AC50 [2]: 6.32e-06 M; AC50 [3]: 6.32e-06 M; CC-v2 (curve class classification of the dose response curve) (curve class v2 (Inglese et al. 2006)): -2.2; Efficacy [4]: -29.737
CC(=O)OC[C@]12C[C@H](OC(C)=O)C(C)=C[C@H]1O[C@@H]1[C@H](O)[C@@H](O)[C@@]2(C)[C@]12CO2 [NCGC00381306-01]	-39.385	–	–	–	Log AC50 (M): -5.644 M; Max Resp: -23.356; AC50 (read-out: AC50): 2.27e-06 M
C=C1C(=O)OC2/C=C(\C)C3=CC(=O)C(C)(CC(OC(=O)/C(C)=C/COC(C)=O)C12)O3 (centres unmarked) [NCGC00384503-01]	-109.374	3.17e-05	3.17e-05	-2.1	–
